Data reported in ChEMBL document CHEMBL5390317, “Novel Indane-Containing NBTIs with Potent Anti-Gram-Negative Activity and Minimal hERG Inhibition” (ACS Med Chem Lett, 2023).
In brackets after ≈: the same amount, converted by molar mass.

What was measured:
[1] = tested on: Pseudomonas aeruginosa; assay: Antibacterial activity against Pseudomonas aeruginosa NCTC 13437 assessed as inhibition in bacterial growth incubated for 20 to 24 hrs by CLSI based broth microdilution method; format: functional; conditions: Pseudomonas aeruginosa, NCTC 13437, time 20-24 hrs; read-out: MIC
[2] = tested on: Pseudomonas aeruginosa; assay: Antibacterial activity against Pseudomonas aeruginosa NCTC 11451 assessed as inhibition in bacterial growth incubated for 20 to 24 hrs by CLSI based broth microdilution method; format: functional; conditions: Pseudomonas aeruginosa, NCTC 11451, time 20-24 hrs; read-out: MIC
[3] = tested on: Klebsiella pneumoniae; assay: Antibacterial activity against Klebsiella pneumoniae ATCC 700603 assessed as inhibition in bacterial growth incubated for 20 to 24 hrs by CLSI based broth microdilution method; format: functional; conditions: Klebsiella pneumoniae, ATCC 700603, time 20-24 hrs; read-out: MIC
[4] = tested on: Escherichia coli; assay: Antibacterial activity against Escherichia coli ATCC 35218 assessed as inhibition in bacterial growth incubated for 20 to 24 hrs by CLSI based broth microdilution method; format: functional; conditions: Escherichia coli, ATCC 35218, time 20-24 hrs; read-out: MIC
[5] = tested on: Escherichia coli; assay: Antibacterial activity against Escherichia coli K-12 BW25113 deltaTolC assessed as inhibition in bacterial growth incubated for 20 to 24 hrs by CLSI based broth microdilution method; format: functional; conditions: time 20-24 hrs
[6] = target: T1, hERG (KCNH2) (Homo sapiens, UniProt Q12809); assay: Inhibition of hERG potassium channel expressed in CHO cells at 10 uM by electrophysiological patch clamp assay relative to control; format: toxicity, cell-based; conditions: CHO cells expressing hERG
[7] = tested on: Klebsiella pneumoniae; assay: Antibacterial activity against Klebsiella pneumoniae ATCC BAA-1705 assessed as inhibition in bacterial growth incubated for 20 to 24 hrs by CLSI based broth microdilution method; format: functional; conditions: time 20-24 hrs
[8] = target: DNA gyrase (Escherichia coli, UniProt P0AES4+P0AES6); assay: Inhibition of Escherichia coli DNA gyrase incubated for 80 mins by Transcreener ADP2 FI assay; format: protein-complex assay
[9] = tested on: Pseudomonas aeruginosa; assay: Antibacterial activity against Pseudomonas aeruginosa ATCC 27853 assessed as inhibition in bacterial growth incubated for 20 to 24 hrs by CLSI based broth microdilution method; format: functional; conditions: time 20-24 hrs
[10] = tested on: Staphylococcus aureus; assay: Antibacterial activity against Staphylococcus aureus ATCC 29213 assessed as inhibition in bacterial growth incubated for 20 to 24 hrs by CLSI based broth microdilution method; format: functional; conditions: Staphylococcus aureus, ATCC 29213; time 20-24 hrs; read-out: MIC
[11] = Inhibition of Escherichia coli topoisomerase 4 incubated for 120 mins by Transcreener ADP2 FI assay
[12] = tested on: Acinetobacter baumannii; assay: Antibacterial activity against Acinetobacter baumannii ATCC BAA-747 assessed as inhibition in bacterial growth incubated for 20 to 24 hrs by CLSI based broth microdilution method; format: functional; conditions: Acinetobacter baumannii, ATCC BAA-747, time 20-24 hrs; read-out: MIC
[13] = tested on: Klebsiella pneumoniae; assay: Antibacterial activity against Klebsiella pneumoniae ATCC 10031 assessed as inhibition in bacterial growth incubated for 20 to 24 hrs by CLSI based broth microdilution method; format: functional; conditions: time 20-24 hrs
[14] = Stability in rat plasma; format: ADME, cell-free
[15] = tested on: Acinetobacter baumannii; assay: Antibacterial activity against Acinetobacter baumannii ATCC 19606 assessed as inhibition in bacterial growth incubated for 20 to 24 hrs by CLSI based broth microdilution method; format: functional; conditions: time 20-24 hrs
[16] = Stability in mouse plasma; format: ADME, cell-free
[17] = Stability in human plasma; format: ADME, cell-free
[18] = target: Voltage-gated inwardly rectifying potassium channel KCNH2 (Homo sapiens, UniProt Q12809); assay: (§1) Inhibition of hERG potassium channel expressed in CHO cells by electrophysiological patch clamp assay; format: toxicity, cell-based
[19] = target: T1, hERG (KCNH2); assay: as §1; format: toxicity, cell-based; conditions: human, CHO cells expressing hERG
[20] = target: T1, hERG (KCNH2); assay: Inhibition of hERG potassium channel expressed in CHO cells at 1 uM by electrophysiological patch clamp assay relative to control; format: toxicity, cell-based; conditions: CHO cells expressing hERG
[21] = tested on: Staphylococcus aureus; assay: Antibacterial activity against Staphylococcus aureus ATCC BAA-1556 assessed as inhibition in bacterial growth incubated for 20 to 24 hrs by CLSI based broth microdilution method; format: functional; conditions: Staphylococcus aureus, ATCC BAA-1556, time 20-24 hrs; read-out: MIC
[22] = tested on: Escherichia coli; assay: Antibacterial activity against Escherichia coli K-12 BW25113 assessed as inhibition in bacterial growth incubated for 20 to 24 hrs by CLSI based broth microdilution method; format: functional; conditions: Escherichia coli, K-12 BW25113, time 20-24 hrs; read-out: MIC
[23] = tested on: Escherichia coli; assay: Antibacterial activity against Escherichia coli ATCC 25922 assessed as inhibition in bacterial growth incubated for 20 to 24 hrs by CLSI based broth microdilution method; format: functional; conditions: time 20-24 hrs
[24] = tested on: Klebsiella pneumoniae; assay: Antibacterial activity against Klebsiella pneumoniae ATCC BAA-2146 assessed as inhibition in bacterial growth incubated for 20 to 24 hrs by CLSI based broth microdilution method; format: functional; conditions: Klebsiella pneumoniae, ATCC BAA-2146, time 20-24 hrs; read-out: MIC
[25] = tested on: Acinetobacter baumannii; assay: Antibacterial activity against Acinetobacter baumannii ATCC 51432 assessed as inhibition in bacterial growth incubated for 20 to 24 hrs by CLSI based broth microdilution method; format: functional; conditions: Acinetobacter baumannii, ATCC 51432, time 20-24 hrs; read-out: MIC
[26] = tested on: Escherichia coli; assay: Antibacterial activity against Escherichia coli ATCC BAA-2340 assessed as inhibition in bacterial growth incubated for 20 to 24 hrs by CLSI based broth microdilution method; format: functional; conditions: Escherichia coli, ATCC BAA-2340, time 20-24 hrs; read-out: MIC

Sequence of Voltage-gated inwardly rectifying potassium channel KCNH2 (Q12809 whole entry): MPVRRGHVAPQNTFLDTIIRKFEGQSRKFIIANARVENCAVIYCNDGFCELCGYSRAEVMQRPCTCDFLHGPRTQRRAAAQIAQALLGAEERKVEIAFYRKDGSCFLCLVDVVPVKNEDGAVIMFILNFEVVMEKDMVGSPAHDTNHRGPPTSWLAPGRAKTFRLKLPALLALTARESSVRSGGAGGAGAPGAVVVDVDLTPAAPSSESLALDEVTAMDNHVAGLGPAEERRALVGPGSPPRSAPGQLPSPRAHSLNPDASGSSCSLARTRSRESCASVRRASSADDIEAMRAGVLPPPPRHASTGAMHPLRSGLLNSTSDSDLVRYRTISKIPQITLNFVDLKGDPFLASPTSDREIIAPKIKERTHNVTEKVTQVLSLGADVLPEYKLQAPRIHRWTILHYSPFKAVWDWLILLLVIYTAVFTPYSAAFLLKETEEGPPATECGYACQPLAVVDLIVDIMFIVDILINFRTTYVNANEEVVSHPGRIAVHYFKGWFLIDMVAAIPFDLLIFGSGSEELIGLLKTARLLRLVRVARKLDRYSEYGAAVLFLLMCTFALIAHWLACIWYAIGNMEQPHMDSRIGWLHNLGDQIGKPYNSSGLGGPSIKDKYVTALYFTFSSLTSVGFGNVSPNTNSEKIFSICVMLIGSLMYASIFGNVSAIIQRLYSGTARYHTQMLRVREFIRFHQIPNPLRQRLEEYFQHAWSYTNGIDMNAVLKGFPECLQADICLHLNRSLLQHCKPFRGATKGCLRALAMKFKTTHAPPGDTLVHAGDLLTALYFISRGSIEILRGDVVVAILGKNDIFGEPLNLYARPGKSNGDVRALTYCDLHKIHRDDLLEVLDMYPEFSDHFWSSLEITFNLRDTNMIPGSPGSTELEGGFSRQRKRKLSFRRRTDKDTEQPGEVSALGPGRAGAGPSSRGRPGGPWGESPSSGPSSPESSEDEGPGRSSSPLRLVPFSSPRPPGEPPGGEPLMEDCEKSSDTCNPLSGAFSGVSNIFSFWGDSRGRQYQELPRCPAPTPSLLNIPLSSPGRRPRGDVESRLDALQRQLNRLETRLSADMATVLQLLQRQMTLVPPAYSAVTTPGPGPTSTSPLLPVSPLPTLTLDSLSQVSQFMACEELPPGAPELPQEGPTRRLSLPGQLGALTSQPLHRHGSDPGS
T1 sequence (Q12809 whole entry): as above

SMILES: CN(C)C(C)(C)C(=O)Nc1cc(F)c2c(c1)CC(CNCCC1CN(c3cnc4c(n3)NC(=O)CO4)C(=O)O1)C2 (stereo unspecified)
- MIC [1]: 4 µg/mL (≈ 7.2 µM)
- MIC [2]: 4 µg/mL (≈ 7.2 µM)
- MIC [3]: 4 µg/mL (≈ 7.2 µM)
- MIC [4]: 0.25 µg/mL (≈ 0.45 µM)
- MIC [5]: ≤ 0.06 µg/mL
- inhibition at 10 µM [6]: 57%
- MIC [7]: 2 µg/mL (≈ 3.6 µM)
- IC50 [8]: 43 nM
- MIC [9]: 1 µg/mL (≈ 1.8 µM)
- MIC [10]: ≤ 0.06 µg/mL
- IC50 [11]: 13 nM
- MIC [12]: ≤ 0.06 µg/mL
- MIC [13]: ≤ 0.06 µg/mL
- Stability [14]: Stable
- MIC [15]: 2 µg/mL (≈ 3.6 µM)
- Stability [16]: Stable
- Stability [17]: Stable
- IC50 [18]: 8200 nM
- IC20 [19]: 3000 nM
- inhibition at 1 µM [20]: 5%
- MIC [21]: 0.25 µg/mL (≈ 0.45 µM)
- MIC [22]: ≤ 0.06 µg/mL
- MIC [23]: 0.125 µg/mL (≈ 0.225 µM)
- MIC [24]: 4 µg/mL (≈ 7.2 µM)
- MIC [25]: 4 µg/mL (≈ 7.2 µM)
- MIC [26]: 0.25 µg/mL (≈ 0.45 µM)

SMILES: CC(C)(N)COc1cc(C#N)c2c(c1)CC(CNCCC1CN(c3ccc4c(n3)NC(=O)CO4)C(=O)O1)C2 (stereo unspecified)
- MIC [1]: 0.5 µg/mL (≈ 0.96 µM)
- MIC [2]: 1 µg/mL (≈ 1.92 µM)
- MIC [3]: 4 µg/mL (≈ 7.68 µM)
- MIC [4]: 0.25 µg/mL (≈ 0.48 µM)
- MIC [5]: ≤ 0.06 µg/mL
- inhibition at 10 µM [6]: 11%
- MIC [7]: 2 µg/mL (≈ 3.84 µM)
- IC50 [8]: 16 nM
- MIC [9]: ≤ 0.06 µg/mL
- MIC [10]: 0.125 µg/mL (≈ 0.24 µM)
- IC50 [11]: 23 nM
- MIC [12]: 0.25 µg/mL (≈ 0.48 µM)
- MIC [13]: ≤ 0.06 µg/mL
- MIC [15]: 8 µg/mL (≈ 15.4 µM)
- IC50 [18]: > 20000 nM
- IC20 [19]: > 10000 nM
- inhibition at 1 µM [20]: 3.5%
- MIC [21]: 0.25 µg/mL (≈ 0.48 µM)
- MIC [22]: ≤ 0.06 µg/mL
- MIC [23]: 0.25 µg/mL (≈ 0.48 µM)
- MIC [24]: 4 µg/mL (≈ 7.68 µM)
- MIC [25]: 8 µg/mL (≈ 15.4 µM)
- MIC [26]: 0.125 µg/mL (≈ 0.24 µM)

SMILES: N#CCOc1cc(F)c2c(c1)CC(CNCCC1CN(c3ccc4c(n3)NC(=O)CO4)C(=O)O1)C2 (stereo unspecified)
- MIC [1]: 4 µg/mL (≈ 8.31 µM)
- MIC [2]: 8 µg/mL (≈ 16.6 µM)
- MIC [3]: 4 µg/mL (≈ 8.31 µM)
- MIC [4]: 0.5 µg/mL (≈ 1.04 µM)
- MIC [5]: ≤ 0.06 µg/mL
- inhibition at 10 µM [6]: 98%
- MIC [7]: 4 µg/mL (≈ 8.31 µM)
- IC50 [8]: 81 nM
- MIC [9]: 4 µg/mL (≈ 8.31 µM)
- MIC [10]: 0.125 µg/mL (≈ 0.26 µM)
- IC50 [11]: 31 nM
- MIC [12]: 0.125 µg/mL (≈ 0.26 µM)
- MIC [13]: ≤ 0.06 µg/mL
- MIC [15]: 0.5 µg/mL (≈ 1.04 µM)
- IC50 [18]: 230 nM
- IC20 [19]: 66 nM
- inhibition at 1 µM [20]: 84%
- MIC [21]: 0.25 µg/mL (≈ 0.519 µM)
- MIC [22]: 0.25 µg/mL (≈ 0.519 µM)
- MIC [23]: 0.5 µg/mL (≈ 1.04 µM)
- MIC [24]: 8 µg/mL (≈ 16.6 µM)
- MIC [25]: 1 µg/mL (≈ 2.08 µM)
- MIC [26]: 1 µg/mL (≈ 2.08 µM)

SMILES: CC(N)COc1cc(F)c2c(c1)CC(CNCCC1CN(c3ccc4c(n3)NC(=O)CO4)C(=O)O1)C2 (stereo unspecified)
- MIC [1]: 1 µg/mL (≈ 2 µM)
- MIC [2]: 2 µg/mL (≈ 4 µM)
- MIC [3]: 2 µg/mL (≈ 4 µM)
- MIC [4]: 0.25 µg/mL (≈ 0.5 µM)
- MIC [5]: ≤ 0.06 µg/mL
- inhibition at 10 µM [6]: 3.9%
- MIC [7]: 1 µg/mL (≈ 2 µM)
- IC50 [8]: 47 nM
- MIC [9]: 0.25 µg/mL (≈ 0.5 µM)
- MIC [10]: ≤ 0.06 µg/mL
- IC50 [11]: 39 nM
- MIC [12]: 0.125 µg/mL (≈ 0.25 µM)
- MIC [13]: ≤ 0.06 µg/mL
- MIC [15]: 2 µg/mL (≈ 4 µM)
- IC50 [18]: > 20000 nM
- IC20 [19]: > 10000 nM
- inhibition at 1 µM [20]: < 1%
- MIC [21]: 0.125 µg/mL (≈ 0.25 µM)
- MIC [22]: ≤ 0.06 µg/mL
- MIC [23]: 0.25 µg/mL (≈ 0.5 µM)
- MIC [24]: 2 µg/mL (≈ 4 µM)
- MIC [25]: 2 µg/mL (≈ 4 µM)
- MIC [26]: 0.25 µg/mL (≈ 0.5 µM)

SMILES: C[C@H](C(=O)Nc1cc(F)c2c(c1)CC(CNCCC1CN(c3cnc4c(n3)NC(=O)CO4)C(=O)O1)C2)N(C)C (stereo in doubt; 2e)
- MIC [1]: 2 µg/mL (≈ 3.69 µM)
- MIC [2]: 2 µg/mL (≈ 3.69 µM)
- MIC [3]: 2 µg/mL (≈ 3.69 µM)
- MIC [4]: 0.25 µg/mL (≈ 0.462 µM)
- MIC [5]: ≤ 0.06 µg/mL
- inhibition at 10 µM [6]: < 1%
- MIC [7]: 2 µg/mL (≈ 3.69 µM)
- IC50 [8]: 38 nM
- MIC [9]: 1 µg/mL (≈ 1.85 µM)
- MIC [10]: 0.25 µg/mL (≈ 0.462 µM)
- IC50 [11]: 8 nM
- MIC [12]: 0.125 µg/mL (≈ 0.231 µM)
- MIC [13]: ≤ 0.06 µg/mL
- Stability [14]: Stable
- MIC [15]: 4 µg/mL (≈ 7.39 µM)
- Stability [16]: Stable
- Stability [17]: Stable
- IC50 [18]: > 20000 nM
- IC20 ([18]; human, cho): > 10000 nM
- inhibition at 1 µM [20]: < 1%
- MIC [21]: 0.5 µg/mL (≈ 0.923 µM)
- MIC [22]: ≤ 0.06 µg/mL
- MIC [23]: 0.125 µg/mL (≈ 0.231 µM)
- MIC [24]: 16 µg/mL (≈ 29.5 µM)
- MIC [25]: 8 µg/mL (≈ 14.8 µM)
- MIC [26]: 0.25 µg/mL (≈ 0.462 µM)
